Activity calls are given as the source filed them. Non-standard residues stand in square brackets, D forms with d. Residues, ends and D or L forms follow the SMILES beside them.
How the values were obtained:
[1] = Luminescence Cell-Based Dose Response HTS to Identify Inhibitors of 5'UTR Stem-Loop Driven Prion Protein mRNA Translation in H4 Neuroglioblastoma Cells. [Related pubchem assays: 1827 (Project Summary), 1813 (Primary HTS)]; assay type: functional
[2] = loss of viability in HepG2 cells – cell-based, CellTiter-Glo, cherry-picked, cytotoxicity control for Shn3 inhibitor project, dose response (AID 624134); assay type: functional
[3] = luciferase reporter signal suppression in cells – H4 neuroglioma cells, luminescence, dose response (AID 1990); assay type: functional, cell-based
HEK293 [4] = assay: NOD2 signaling inhibitors in MDP-stimulated cells, cell-based, uHTS, luminescence (AID 2001); assay type: functional; settings: Homo sapiens
HEK293 [5] = assay: inhibition of NOD1-driven NF-kB reporter – cell-based, luminescence, uHTS, primary screen (AID 1578); assay type: functional; settings: Homo sapiens
[6] = HEK-293T viability loss, compound-treated – cell-based, uHTS hits, cytotoxicity control for B/T-cell NF-kB inhibitor project, dose response (AID 489019); assay type: functional;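 also: IC50 reflects cytotoxicity as loss of cell viability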
[7] = molecular target: T1, Nucleotide-binding oligomerization domain-containing protein 1 (Homo sapiens, UniProt Q9Y239); assay: blockers of NOD1 pathway activity – revised, SAR follow-up (AID 2333); assay type: functional
T1 sequence (Q9Y239 whole entry): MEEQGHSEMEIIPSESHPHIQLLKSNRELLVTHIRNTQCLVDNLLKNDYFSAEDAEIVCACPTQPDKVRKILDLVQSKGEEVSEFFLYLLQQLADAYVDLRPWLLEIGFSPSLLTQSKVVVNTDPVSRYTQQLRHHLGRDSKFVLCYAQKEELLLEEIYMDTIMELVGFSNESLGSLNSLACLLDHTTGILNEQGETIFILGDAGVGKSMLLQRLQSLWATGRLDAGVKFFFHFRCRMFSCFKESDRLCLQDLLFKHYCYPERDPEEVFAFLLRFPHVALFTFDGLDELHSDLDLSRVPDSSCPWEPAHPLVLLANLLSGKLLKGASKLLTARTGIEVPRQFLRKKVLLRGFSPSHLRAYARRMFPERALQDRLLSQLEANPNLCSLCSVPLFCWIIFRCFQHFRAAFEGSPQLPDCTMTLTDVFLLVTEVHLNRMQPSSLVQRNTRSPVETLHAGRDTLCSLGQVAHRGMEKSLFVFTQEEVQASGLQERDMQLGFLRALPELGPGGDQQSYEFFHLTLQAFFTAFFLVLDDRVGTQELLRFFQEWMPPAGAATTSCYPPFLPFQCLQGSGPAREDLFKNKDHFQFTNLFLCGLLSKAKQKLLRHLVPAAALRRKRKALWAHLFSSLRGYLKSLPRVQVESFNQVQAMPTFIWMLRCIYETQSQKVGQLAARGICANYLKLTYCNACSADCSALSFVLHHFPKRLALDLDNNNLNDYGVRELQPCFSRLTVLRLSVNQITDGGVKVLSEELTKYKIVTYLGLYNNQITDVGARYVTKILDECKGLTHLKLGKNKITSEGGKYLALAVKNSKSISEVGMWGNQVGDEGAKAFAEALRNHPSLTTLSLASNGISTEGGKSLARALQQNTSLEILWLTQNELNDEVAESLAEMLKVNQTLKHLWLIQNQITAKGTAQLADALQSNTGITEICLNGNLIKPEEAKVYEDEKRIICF

[8] = reduction of Shn3 3'UTR-driven luciferase in osteoblasts – cell-based, Clone20 osteoblasts, firefly luciferase, cherry-picked, dose response (AID 624132); assay type: functional;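 also: firefly luciferase luminescence from reporter carrying the Shn3 3'UTR in osteoblasts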
[9] = alpha-synuclein stem-loop luciferase translation blockers – H4 neuroglioma cells, luminescence, confirmation (AID 1988); assay type: functional, cell-based
HEK293 [10] = assay: cells; assay type: functional, cell-based; settings: Homo sapiens
[11] = molecular target: T2, Heat shock factor protein 1 (Mus musculus, UniProt P38532); assay: decrease of HSF1-responsive luciferase luminescence – cell-based, NIH3T3, dose retest, confirmation (AID 2382); assay type: functional;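 also: NIH3T3 fibroblasts with HSF1-driven luciferase reporter stressed by proteasome inhibitor MG132; luminescence from HSF1-driven luciferase expression after 8 hours of MG132 stress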
T2 sequence (P38532 whole entry): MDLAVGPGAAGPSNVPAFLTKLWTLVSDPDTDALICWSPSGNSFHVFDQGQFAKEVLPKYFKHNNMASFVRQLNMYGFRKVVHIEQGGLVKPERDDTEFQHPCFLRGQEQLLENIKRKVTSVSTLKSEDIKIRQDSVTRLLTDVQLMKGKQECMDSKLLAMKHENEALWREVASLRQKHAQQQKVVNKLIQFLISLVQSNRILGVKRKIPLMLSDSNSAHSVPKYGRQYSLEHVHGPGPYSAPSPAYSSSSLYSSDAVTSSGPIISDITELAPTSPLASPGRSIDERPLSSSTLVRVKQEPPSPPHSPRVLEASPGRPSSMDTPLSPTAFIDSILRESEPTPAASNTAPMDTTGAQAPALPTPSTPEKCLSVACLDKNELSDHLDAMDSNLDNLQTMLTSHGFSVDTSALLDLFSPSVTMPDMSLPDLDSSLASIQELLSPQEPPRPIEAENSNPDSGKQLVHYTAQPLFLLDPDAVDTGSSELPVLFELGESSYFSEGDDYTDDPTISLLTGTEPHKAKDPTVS

Jurkat = assay: blockers of NF-kB activation in T cells – Jurkat, luciferase reporter, luminescence, B- and T-cell, dose response (AID 489004); assay type: functional, cell-based; settings: Homo sapiens;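 also: NF-kB luciferase reporter Jurkat cells stimulated with PMA plus ionomycin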
HEK293 [12] = assay: cells; settings: Homo sapiens
[13] = non-specific 3'UTR reporter inhibition in Clone20-Shn3RL – cell-based, Renilla luciferase, cherry-picked, counter-screen for Shn3 inhibitor project, dose response (AID 624133); assay type: functional
HEK293 [14] = assay: cells; assay type: functional, cell-based; settings: Homo sapiens; remark: listed apart in the source
Tumor necrosis factor = Tumor necrosis factor (Homo sapiens, UniProt P01375); assay: analog potency on TNFa NF-kB signaling – cell-based, revised, SAR follow-up (AID 2337); assay type: functional
Tumor necrosis factor, sequence (P01375 whole entry): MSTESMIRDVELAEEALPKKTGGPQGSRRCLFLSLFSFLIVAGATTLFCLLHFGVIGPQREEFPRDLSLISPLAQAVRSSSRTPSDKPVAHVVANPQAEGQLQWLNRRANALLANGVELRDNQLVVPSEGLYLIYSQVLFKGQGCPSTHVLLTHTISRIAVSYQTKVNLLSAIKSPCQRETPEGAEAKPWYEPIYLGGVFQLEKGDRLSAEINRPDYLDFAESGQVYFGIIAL

Beta-galactosidase = Beta-galactosidase (Escherichia coli, UniProt Q8VNN2); assay: PubChem AID 485352; assay type: functional
Beta-galactosidase, sequence (Q8VNN2 whole entry): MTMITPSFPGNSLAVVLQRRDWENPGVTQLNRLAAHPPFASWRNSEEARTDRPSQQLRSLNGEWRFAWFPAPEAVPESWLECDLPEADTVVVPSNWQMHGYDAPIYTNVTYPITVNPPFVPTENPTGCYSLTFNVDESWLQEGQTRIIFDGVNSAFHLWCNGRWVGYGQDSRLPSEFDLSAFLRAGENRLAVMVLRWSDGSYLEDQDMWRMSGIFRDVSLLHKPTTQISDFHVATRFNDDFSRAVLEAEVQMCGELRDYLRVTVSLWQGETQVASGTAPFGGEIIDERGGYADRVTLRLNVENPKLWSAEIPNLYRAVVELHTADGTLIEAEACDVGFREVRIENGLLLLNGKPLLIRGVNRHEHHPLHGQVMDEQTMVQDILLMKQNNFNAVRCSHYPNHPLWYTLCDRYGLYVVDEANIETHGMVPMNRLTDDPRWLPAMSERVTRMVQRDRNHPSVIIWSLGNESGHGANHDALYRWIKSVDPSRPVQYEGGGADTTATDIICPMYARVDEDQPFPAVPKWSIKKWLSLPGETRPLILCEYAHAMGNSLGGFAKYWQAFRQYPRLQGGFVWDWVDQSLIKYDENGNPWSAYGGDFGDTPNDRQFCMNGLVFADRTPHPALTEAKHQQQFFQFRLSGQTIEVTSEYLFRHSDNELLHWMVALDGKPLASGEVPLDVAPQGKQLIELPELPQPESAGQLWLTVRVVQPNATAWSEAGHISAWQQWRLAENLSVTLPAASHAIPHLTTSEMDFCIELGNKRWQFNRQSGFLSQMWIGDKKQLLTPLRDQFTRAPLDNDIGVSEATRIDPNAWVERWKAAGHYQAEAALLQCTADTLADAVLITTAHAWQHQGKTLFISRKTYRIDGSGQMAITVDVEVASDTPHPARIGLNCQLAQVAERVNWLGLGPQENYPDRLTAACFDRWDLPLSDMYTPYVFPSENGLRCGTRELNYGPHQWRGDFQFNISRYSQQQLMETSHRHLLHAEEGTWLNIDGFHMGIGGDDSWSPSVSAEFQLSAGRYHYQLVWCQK

[15] = molecular target: T3, Type-1 angiotensin II receptor (Homo sapiens, UniProt P30556); assay: antagonism of angiotensin II type 1 receptor – cell-based, uHTS hits, selectivity assay for APJ receptor antagonist project, dose response (AID 463214); assay type: functional;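 also: antagonist potency against angiotensin II stimulated AT1 response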
T3 sequence (P30556 whole entry): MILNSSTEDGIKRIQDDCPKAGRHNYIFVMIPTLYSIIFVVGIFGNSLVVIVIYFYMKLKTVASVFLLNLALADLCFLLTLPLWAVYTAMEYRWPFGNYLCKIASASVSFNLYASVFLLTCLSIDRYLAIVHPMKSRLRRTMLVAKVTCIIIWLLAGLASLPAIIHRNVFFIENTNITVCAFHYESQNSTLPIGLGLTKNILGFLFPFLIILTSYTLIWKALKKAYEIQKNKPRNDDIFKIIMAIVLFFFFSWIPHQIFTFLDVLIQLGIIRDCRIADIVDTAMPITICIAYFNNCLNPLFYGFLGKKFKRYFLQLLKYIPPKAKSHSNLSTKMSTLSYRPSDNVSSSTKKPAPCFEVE

[16] = molecular target: T4, Tyrosine-protein phosphatase non-receptor type 5 (Homo sapiens, UniProt P54829); assay: PTPN5 enzyme inhibition – biochemical, fluorescence intensity, uHTS hits, confirmation (AID 602372); assay type: functional; settings: read-out: IC50_Mean
T4 sequence (P54829 whole entry): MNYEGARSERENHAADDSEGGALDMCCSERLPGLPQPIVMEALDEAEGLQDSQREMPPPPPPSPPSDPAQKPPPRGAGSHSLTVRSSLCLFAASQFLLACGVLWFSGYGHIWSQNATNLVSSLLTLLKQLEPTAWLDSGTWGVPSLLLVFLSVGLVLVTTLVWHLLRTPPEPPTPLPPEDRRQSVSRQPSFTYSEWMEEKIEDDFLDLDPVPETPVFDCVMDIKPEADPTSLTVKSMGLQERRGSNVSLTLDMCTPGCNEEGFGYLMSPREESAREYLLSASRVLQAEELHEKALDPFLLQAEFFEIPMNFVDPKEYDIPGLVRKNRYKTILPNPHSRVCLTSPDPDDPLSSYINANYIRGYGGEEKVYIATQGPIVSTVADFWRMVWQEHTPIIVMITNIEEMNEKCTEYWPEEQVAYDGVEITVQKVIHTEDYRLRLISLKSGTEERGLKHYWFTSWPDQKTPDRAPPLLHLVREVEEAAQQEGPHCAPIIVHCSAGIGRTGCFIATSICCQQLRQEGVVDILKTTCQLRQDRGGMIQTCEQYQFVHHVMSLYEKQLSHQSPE

[17] = molecular target: Dual specificity protein phosphatase 3 (Homo sapiens, UniProt P51452); assay: VHR phosphatase inhibition, dose response, selectivity assay for STEP inhibitor project, biochemical (AID 602374); assay type: functional; settings: read-out: IC50_Mean
Dual specificity protein phosphatase 3, sequence (P51452 whole entry): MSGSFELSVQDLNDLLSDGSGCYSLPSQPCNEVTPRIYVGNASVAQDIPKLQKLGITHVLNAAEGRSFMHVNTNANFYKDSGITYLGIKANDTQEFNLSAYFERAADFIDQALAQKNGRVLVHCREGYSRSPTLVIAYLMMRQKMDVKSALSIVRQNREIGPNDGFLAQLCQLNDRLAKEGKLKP

[18] = molecular target: T5, Tyrosine-protein phosphatase non-receptor type 11 (Homo sapiens, UniProt Q06124); assay: PTPN11 enzyme inhibitors – biochemical, selectivity assay for STEP inhibitor project, dose response (AID 602367); assay type: functional; settings: read-out: IC50_Mean
T5 sequence (Q06124 whole entry): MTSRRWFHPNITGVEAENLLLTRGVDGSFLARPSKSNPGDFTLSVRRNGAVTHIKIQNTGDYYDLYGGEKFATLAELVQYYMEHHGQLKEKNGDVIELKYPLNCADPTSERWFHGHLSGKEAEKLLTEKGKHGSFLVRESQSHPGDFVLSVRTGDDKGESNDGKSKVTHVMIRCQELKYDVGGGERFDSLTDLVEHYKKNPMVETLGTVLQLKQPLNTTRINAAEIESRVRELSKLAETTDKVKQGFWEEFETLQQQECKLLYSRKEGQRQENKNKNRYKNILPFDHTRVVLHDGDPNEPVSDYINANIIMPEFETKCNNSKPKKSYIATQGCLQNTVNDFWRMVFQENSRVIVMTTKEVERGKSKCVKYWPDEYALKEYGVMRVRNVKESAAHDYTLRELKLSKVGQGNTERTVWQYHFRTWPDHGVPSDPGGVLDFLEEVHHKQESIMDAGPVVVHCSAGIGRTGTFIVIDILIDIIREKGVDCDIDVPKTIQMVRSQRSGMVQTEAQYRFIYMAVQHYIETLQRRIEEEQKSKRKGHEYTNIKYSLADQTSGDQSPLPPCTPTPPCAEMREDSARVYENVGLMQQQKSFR

INS1 = assay: INS-1E survival protection against cytokine death – cell-based, luminescence, retest, dose response (AID 449756); assay type: functional; settings: Rattus norvegicus;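 also: cell death triggered by IL-1 beta plus TNF-alpha plus IFN-gamma mixture; protective hits raise ATP signal compared with cytokine alone wells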
[19] = molecular target: Glucose-6-phosphate 1-dehydrogenase (Homo sapiens, UniProt P11413); assay: inhibition of Homo sapiens G6PD, dose series – biochemical, fluorescence, selectivity assay for P. falciparum G6PD inhibitor project, dose response (AID 504792); assay type: functional
Glucose-6-phosphate 1-dehydrogenase, sequence (P11413 whole entry): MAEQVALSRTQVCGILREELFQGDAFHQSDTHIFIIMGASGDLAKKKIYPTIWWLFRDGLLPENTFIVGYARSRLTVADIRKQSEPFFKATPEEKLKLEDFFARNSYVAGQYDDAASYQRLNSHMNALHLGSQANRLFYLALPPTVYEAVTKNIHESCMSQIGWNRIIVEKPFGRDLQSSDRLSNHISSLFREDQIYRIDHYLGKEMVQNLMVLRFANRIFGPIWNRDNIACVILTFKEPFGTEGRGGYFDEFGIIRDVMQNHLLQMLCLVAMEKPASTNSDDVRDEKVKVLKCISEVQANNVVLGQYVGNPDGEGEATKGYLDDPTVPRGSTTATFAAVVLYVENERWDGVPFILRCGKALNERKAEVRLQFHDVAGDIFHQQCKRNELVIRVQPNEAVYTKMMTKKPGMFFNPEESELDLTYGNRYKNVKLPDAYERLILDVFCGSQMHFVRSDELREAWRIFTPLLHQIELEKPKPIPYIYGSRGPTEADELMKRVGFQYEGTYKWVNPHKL

P388 = assay: cells; assay type: functional; settings: Mus musculus
SN12K1 = assay: cells; assay type: functional; settings: Homo sapiens
P388/ADR = assay: cells; assay type: functional; settings: Mus musculus

SMILES: CC(Nc1ncnc2sccc12)c1ccccc1 (centres undefined)
- EC50 [1]: > 120 µM (not active)
- AC50 [2]: 1.71 µM (active)
- EC50 [3]: > 120 µM (not active)
- IC50 (HEK293 [4]): 3.62 µM (active)
- EC50 (HEK293 [5]): 1.36 µM (active)
- IC50 [6]: > 80 µM (inactive)
- IC50 [7]: 1.55 µM (active)
- AC50 [8]: 0.505 µM (active)
- EC50 [9]: > 120 µM (not active)
- IC50 (HEK293 [10]): 2.67 µM (active)
- EC50 [11]: > 195 µM (not active)
- IC50 (Jurkat): > 80 µM (inactive)
- IC50 (HEK293 [12]): > 20 µM (inactive)
- AC50 [13]: 0.606 µM (active)
- IC50 (HEK293 [14]): 13.5 µM (active)
- IC50 (Tumor necrosis factor): 2.35 µM (active)

SMILES: Cc1ccc(NNC(=O)c2c(C)noc2C)cc1Cl
- EC50 (Beta-galactosidase): > 40 µM (inactive)
- IC50 [15]: 5.22 µM (active)

SMILES: CCCCN(CC)Cc1ccc(CN=C(S)Nc2c(C)cc(C)cc2C)o1
- IC50 [16]: 45.9 µM (inactive)
- IC50 [17]: 2.45 µM (active)
- IC50 [18]: 4.52 µM (active)

SMILES: Cc1ccc(C(=O)COC(=O)c2ccncc2)cc1[N+](=O)[O-]
- EC50 (Beta-galactosidase): > 40 µM (inactive)
- IC50 [15]: 20 µM (active)

SMILES: NNc1nc(-c2ccccc2)cc(-c2ccccc2O)n1
- AC50 (INS1): 1.7 µM (active)
- EC50 (Beta-galactosidase): > 40 µM (inactive)
- IC50 [15]: 4.2 µM (active)

SMILES: CN1CCN(C(=S)c2ccc(Br)cc2)CC1
- IC50 [19]: > 80 µM (inactive)
- IC50 [16]: 30.8 µM (inactive)
- IC50 [17]: 1.14 µM (active)
- IC50 [18]: 1.51 µM (active)

SMILES: Cc1cc(C)nc(NNS(=O)(=O)c2ccc(Cl)cc2)n1
- EC50 (Beta-galactosidase): > 40 µM (inactive)
- IC50 [15]: > 40 µM (not active)

SMILES: CN(C)CCNc1c2ccccc2c2c3c(cccc13)C(=O)N(CCN(C)C)C2=O
- GI50 (P388): 0.0723 µM (active)
- GI50 (SN12K1): 0.31 µM (active)
- GI50 (P388/ADR): 0.218 µM (active)

SMILES: CC1NC(=O)CC(c2ccccc2)N(N=O)C1c1ccccc1 (centres undefined)
- GI50 (P388): 10.3 µM (inactive)
- GI50 (SN12K1): 21.6 µM (inactive)
- GI50 (P388/ADR): 15.3 µM (inactive)

SMILES: CCCCCCCCCCCC[C@@H](O)[C@H]1CC[C@H]([C@H](O)CCCC[C@H](O)CCCCC[C@@H](O)CC2=C[C@H](C)OC2=O)O1
- GI50 (P388): < 0.0366 µM (active)
- GI50 (SN12K1): < 0.01 µM (active)
- GI50 (P388/ADR): 0.106 µM (active)

SMILES: CC(C)C[C@H](NC(=O)[C@H](CC(C)C)NC(=O)[C@@H](Cc1c[nH]c2ccccc12)NC(=O)[C@H](Cc1ccccc1)NC(=O)[C@@H](Cc1c[nH]c2ccccc12)NC(=O)[C@H](CCC(N)=O)NC(=O)[C@H](CCC(N)=O)NC(=O)[C@H]1CCCN1C(=O)[C@@H](N)CCCCN)C(N)=O (H-K[dP]QQ[dW]F[dW]LL-NH2)
- GI50 (P388): > 100 µM (inactive)
- GI50 (SN12K1): > 100 µM (inactive)
- GI50 (P388/ADR): > 100 µM (inactive)
